The text below walks through data of PMC3390896, “The Distribution and Physiological Effects of the Myoinhibiting Peptides in the Kissing Bug, Rhodnius Prolixus” (Frontiers in Neuroscience, 2012).

The test system of one experiment is L. migratoria hindgut. The following applies: ref Schoofs et al., [1991]; cited from earlier work. From the text:
As shown in many insects (and as indicated by their name) MIPs are inhibitory of visceral muscle contraction. Thus, in R. prolixus, MIPs inhibit contractions of the hindgut in a dose-dependent manner. This is true for Rhopr-MIP-4 and for Rhopr-MIP-7. […] The thresholds for these Rhopr-MIPs were approximately the same. These threshold concentrations are lower than the threshold concentrations determined for the suppression of hindgut muscle contractions in L. migrator ...

For another experiment, the system named is R. prolixus hindgut. Description: R. prolixus hindgut contraction assay (spontaneous contractions, force transducer). Also on record: species or system Rhodnius prolixus. The following applies: mean of five to six preparations. An excerpt: Hindguts from female adult R. prolixus were dissected under R. prolixus saline, leaving a small portion of the ventral cuticle attached to the posterior end. The preparation was placed in a shallow trough molded into a Sylgard-coated petri dish. The preparation was secured to the dish by pinning the cuticle using minuten pins. The anterior end of the hindgut was attached to an AE875 miniature force transducer (Aksjeselskapet Mikro-Elektronikk, Norway) using a strand of silk. Muscle activity was monitored on a linear flat-bed chart recorder connected to a force transducer through an amplifier. Isolated hindguts were maintained in 200 μL of saline at room temperature. Working concentrations of Rhopr-MIP-4 or Rhopr-MIP-7 were applied by removing 100 μL of saline and replacing it with the same volume of peptide that yielded final concentrations of 10^−11 to 10^−6 M. The peptides were washed from the preparation using saline between trials. The effects of the peptides on hindgut contractions were monitored over a 5 min time period.
Responses to Rhopr-MIP-4 and Rhopr-MIP-7 were quantified by dividing the frequency of contractions during the second minute after application, by the frequency of contractions during the 1 min interval prior to peptide application.

Experiment [1] addresses T1, Drosophila melanogaster sex peptide receptor (Drome-SPR) (Drosophila melanogaster, UniProt Q8SWR3).
T1 construct: expressed in transfected cells; host or cells: CHO-WTA11 cells (expressing apoaequorin and Gα16)
T1 sequence (Q8SWR3 1-435): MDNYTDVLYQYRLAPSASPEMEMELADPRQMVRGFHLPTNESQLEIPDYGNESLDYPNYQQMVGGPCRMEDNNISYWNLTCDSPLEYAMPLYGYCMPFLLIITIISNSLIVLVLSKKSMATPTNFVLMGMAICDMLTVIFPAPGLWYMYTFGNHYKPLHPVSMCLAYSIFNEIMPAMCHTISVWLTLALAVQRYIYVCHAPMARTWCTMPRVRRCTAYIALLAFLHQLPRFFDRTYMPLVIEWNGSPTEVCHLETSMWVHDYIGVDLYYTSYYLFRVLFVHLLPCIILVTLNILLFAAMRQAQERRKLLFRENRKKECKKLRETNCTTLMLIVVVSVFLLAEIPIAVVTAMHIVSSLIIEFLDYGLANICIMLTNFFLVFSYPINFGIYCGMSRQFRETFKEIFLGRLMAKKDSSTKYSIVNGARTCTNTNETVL
In words: Functional aequorin-based Drome-SPR assay in CHO-WTA11 cells. Format: cell-based. Particulars: CHO cells coexpressing aequorin, Gα16 and Drosophila SPR; aequorin luminescence; three independent measurements done in triplicate. The procedure:
Drome-SPR expression vector (described by Poels et al., [2010]) transfected and mock transfected (negative control) CHO-WTA11 cells (expressing apoaequorin and Gα16) were grown until 90% confluency, detached using PBS with 100 μM EDTA, spun (6 min, 150 g) and resuspended at 5 × 10^6 cells/mL in D-MEM/F-12 without phenol red supplemented with 0.1% BSA. “Coelenterazine h” (Invitrogen) was added to a concentration of 5 μM and the cells were incubated in the dark at room temperature for 3–4 h. After coelenterazine loading, cells were diluted 10-fold and incubated for 30 min. Test compounds were dissolved in 50 μL D-MEM/F-12 supplemented with 0.1% BSA and dispensed in triplicate into the wells of a white 96-well plate. Light emission was recorded (Mithras LB940, Berthold) for 30 s immediately after injection of 50 μL cell suspension into each well. Cells were then lysed by a second injection of 50 μL 0.3% Triton X-100 and monitored during 8 s. Data were collected using MikroWin2000 (Mikrotek Laborsysteme Gmbh).
(SPR reads the build-up and loss of mass on a sensor chip optically.)

In experiment [2] the target is T1, Drosophila melanogaster sex peptide receptor (Drome-SPR). Further details: method as in Poels et al., [2010]. The following applies: same aequorin assay; ref Poels et al., [2010]; cited from earlier work. As to the method:
The activity profiles of Rhopr-MIP-4 and -7 were tested in the functional aequorin-based Drome-SPR assays (Figure 5).

[3] abbreviates: frequency in second minute after application divided by frequency in 1 min before, read-out: IC50 for frequency of spontaneous hindgut contractions.
[4] abbreviates: isolated hindgut of female adult R. prolixus, saline, room temperature, read-out: IC50 for amplitude of spontaneous hindgut contractions.

Like-named read-outs stand apart in the source and are kept apart here. Where a SMILES comes first, the peptide text is derived from it. Bridges are numbered along the chain shown (N, C = ends). Where no end group is shown, it is not given here.

As to AWQDLNAGW-NH2 [Lom-MIP], the “threshold concentration for suppression of hindgut muscle contractions” value in the experiment with L. migratoria hindgut is 1.8 nM.

`CC(C)C[C@H](NC(=O)[C@H](CO)NC(=O)[C@H](CC(N)=O)NC(=O)[C@H](Cc1c[nH]c2ccccc12)NC(=O)[C@H](C)N)C(=O)N[C@@H](Cc1c[nH]cn1)C(=O)NCC(=O)NCC(=O)N[C@@H](Cc1c[nH]c2ccccc12)C(N)=O` [Rhopr-MIP-7] (H-AWNSLHGGW-NH2): the half-maximal inhibitory concentration (IC50) was about 20 nM with R. prolixus hindgut (setting [3]) and about 100 nM in the experiment with R. prolixus hindgut (setting [4]). This compound also displayed an EC50 in experiment [1] of 0.59 nM.

With “Drome-SP: Drosophila sex peptide, 36 amino acids with a core W(X8)W and a C-terminal disulfide bridge (WEWPWNRKPTKFPIPSPNPRDKWCRLNLGPAWGGRC; disulfide 24-36 (inferred); UniProt P05623 20-55, looked up)”, the EC50 in experiment [2] was about 15 nM.

Take `CC(C)C[C@H](NC(=O)[C@H](CC(=O)O)NC(=O)[C@H](CO)NC(=O)[C@H](Cc1c[nH]c2ccccc12)NC(=O)[C@H](C)N)C(=O)N[C@@H](CCC(N)=O)C(=O)N[C@@H](CO)C(=O)N[C@@H](CO)C(=O)NCC(=O)N[C@@H](Cc1c[nH]c2ccccc12)C(N)=O` [Rhopr-MIP-4] (H-AWSDLQSSGW-NH2): the IC50 in the experiment on R. prolixus hindgut (setting [3]) is about 20 nM; with R. prolixus hindgut (setting [4]) it was about 10 nM. Moreover, the midpoint of the response in experiment [1], the EC50, lay at 53 nM.

As usually defined, the IC50 is the concentration at which inhibition is half-maximal. By EC50 is commonly meant the concentration giving half of the maximal effect.
